Assay results published in paper PMC10355216, “The C-terminal tail of CSNAP attenuates the CSN complex” (Life Science Alliance, 2023).
Where no end group is shown, it is not given here. [ ]: non-standard residue; d: D form. Aib = CC(C)(N)C(=O)O

Experiments:
[1] = system: recombinant CSN complex; assay: Peptide array screen of C-CSNAP peptides with recombinant CSN (rCSN^WT); format: binding; conditions: for Average fold change, intensities as fold of C-CSNAP (A1): rCSN^WT on INTAVIS Celluspots array, anti-CSN3 and HRP secondary antibody, average of six replicates (three independent experiments in duplicates); for intensities as fold of C-CSNAP (A1), Experiment #1 left / intensities as fold of C-CSNAP (A1), Experiment #1 right / intensities as fold of C-CSNAP (A1), Experiment #2 left / intensities as fold of C-CSNAP (A1), Experiment #2 right / intensities as fold of C-CSNAP (A1), Experiment #3 left / intensities as fold of C-CSNAP (A1), Experiment #3 right: rCSN^WT peptide array; for intensities as fold of C-CSNAP (A1), Experiment #1 left: replicate: Experiment #1, left array; for intensities as fold of C-CSNAP (A1), Experiment #1 right: replicate: Experiment #1, right array; for intensities as fold of C-CSNAP (A1), Experiment #2 left: replicate: Experiment #2, left array; for intensities as fold of C-CSNAP (A1), Experiment #2 right: replicate: Experiment #2, right array; for intensities as fold of C-CSNAP (A1), Experiment #3 left: replicate: Experiment #3, left array; for intensities as fold of C-CSNAP (A1), Experiment #3 right: replicate: Experiment #3, right array; for Average fold change: peptide array with rCSN, average of 3 experiments, left and right (n = 6), fold of C-CSNAP (A1);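 for all read-outs here: densitometric signal of CSN bound to each synthesized peptide spot, with an antibody-only array lacking CSN run to exclude non-specific binding, higher values meaning stronger binding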
[2] = system: CSN^ΔCSNAP complex; assay: Peptide array screen of C-CSNAP peptides with rCSN^ΔCSNAP; format: binding; conditions: average of 5 experiments;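 note: Array-printed peptides incubated with 0.5 µM CSN^ΔCSNAP, bound complex detected by anti-CSN3 antibody plus HRP-linked secondary, spot intensity expressed relative to the parent reference peptide spot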
Protocol: Peptide array screen of modified C-CSNAP peptides. C-CSNAP peptide and its derivatives were printed on a microarray. The array was blocked and incubated with or without the CSN∆CSNAP complex and probed using an anti-CSN3 antibody and HRP-conjugated secondary antibody. To assess non-specific binding of the antibodies to the array, anti-CSN3 and anti-GAR-HRP were used without the addition of the COP9 signalosome complex (CSN). Signal intensity of each spot was measured and normalized to the intensity of the spot of C-CSNAP (A1). Measured values for each spot were averaged from six arrays and plotted with standard errors SEM.
Intensity values are normalized to the intensity of the 16AA C-CSNAP peptide (A1) on each array from three independent experiments in duplicates, and averages from the six replicates are calculated with SEM.
Optimization of C-CSNAP sequence for enhanced binding to recombinant CSN^ΔCSNAP was screened by printing the modified sequences of CSNAP or C-CSNAP (Phe to Trp, Asp to Glu, Ala screen, D-amino acid screen, N-α-methylation, and Aib incorporation on INTAVIS Celluspots array [2 × 384spots]). The array was blocked with 5% skim milk in TBS-0.5% Tween 20 (TBS-T) for 4 h at room temperature, washed three times in TBS-T, and then incubated with 0.5 μM CSN^ΔCSNAP in 5% milk–TBS-T. Bound CSN^ΔCSNAP was visualized by incubating with anti-CSN3 (ab79698) antibody (1:10,000, overnight) and goat-anti-rabbit-HRP secondary antibody (1:10,000, 1 h).

[3] = peptide array, rCSN^ΔCSNAP, left and right spots
[4] = peptide array with rCSN^ΔCSNAP, left and right (n = 10), fold of C-CSNAP (A1)

Row | Substance | Average fold change, intensities as fold of C-CSNAP (A1) [1] | Average fold change [2, 3] | further results
1 | DFFN-Aib-FEDLF-Aib-DDDIQ-Aib [Position H15, C-CSNAP with Aib incorporation (46,52,58)] | 0.4542 fold of C-CSNAP (A1) | – | intensities as fold of C-CSNAP (A1), Experiment #1 left [1]: 0.3458 fold of C-CSNAP (A1); intensities as fold of C-CSNAP (A1), Experiment #1 right [1]: 0.3290 fold of C-CSNAP (A1); intensities as fold of C-CSNAP (A1), Experiment #2 left [1]: 0.2291 fold of C-CSNAP (A1); intensities as fold of C-CSNAP (A1), Experiment #2 right [1]: 0.4652 fold of C-CSNAP (A1); intensities as fold of C-CSNAP (A1), Experiment #3 left [1]: 0.2799 fold of C-CSNAP (A1); intensities as fold of C-CSNAP (A1), Experiment #3 right [1]: 1.0762 fold of C-CSNAP (A1); Average fold change, intensities as fold of C-CSNAP (A1) [2, 3]: 0.5199 fold
2 | DFFNDFEDAFDDDDIQ [C 4, C-CSNAP, Ala substitution L50A] | 0.5335 fold of C-CSNAP (A1) | – | Average fold change [2, 4]: 0.8879 fold
3 | VDLDEAGGSTGLLMDLAANEKAVHADFFNDFEDLFDDDDIQ [B 2, CSNAP residues 17-57] | 0.7909 fold of C-CSNAP (A1) | – | Average fold change [2, 4]: 0.8221 fold
4 | DFFNDFEELFDDEDIQ [Position D23, C-CSNAP, Asp to Glu substitution D49,54E] | 0.5825 fold of C-CSNAP (A1) | 1.0923 fold of C-CSNAP (A1) | –
5 | EFFNEFEELFDEDDIQ [D42,46,49,53E] | – | 1.2266 fold of C-CSNAP (A1) | Average fold change [1]: 0.3807 fold
6 | EFFNEFEDLFDDEDIQ [E 7, C-CSNAP, Asp to Glu substitution D42,46,54E] | 0.6639 fold of C-CSNAP (A1) | 1.1480 fold of C-CSNAP (A1) | –
7 | DFFNDFEDLFDDDDAQ [Position C10, C-CSNAP, Ala substitution I56A] | 1.1392 fold of C-CSNAP (A1) | – | Average fold change [2, 4]: 1.2151 fold
8 | DFWNDWEDLWDDDDIQ [Position C22, C-CSNAP, Phe to Trp substitution F44,47,51W] | 0.6112 fold of C-CSNAP (A1) | 1.2126 fold of C-CSNAP (A1) | –
9 | KPAVDEMFPEGAGPYVDLDEAGGSTGLLMDLAANEKAVHADFFNDFEDLFDDDDIQ [Position B17, CSNAP residues 2-57] | 1.0902 fold of C-CSNAP (A1) | – | Average fold change [2, 4]: 1.3898 fold
10 | DFFNDFEDLFDDEDIQ [D 8, C-CSNAP, Asp to Glu substitution D54E] | 0.9836 fold of C-CSNAP (A1) | 1.1238 fold of C-CSNAP (A1) | –
11 | DFFNDFEELFDDDEIQ [Position D24, C-CSNAP, Asp to Glu substitution D49,55E] | 0.5347 fold of C-CSNAP (A1) | 1.2175 fold of C-CSNAP (A1) | –
12 | DFF-Aib-DFED-Aib-FDDDI-Aib-Q [Position H16, C-CSNAP with Aib incorporation (45,50,56)] | 0.4930 fold of C-CSNAP (A1) | – | intensities as fold of C-CSNAP (A1), Experiment #1 left [1]: 0.3868 fold of C-CSNAP (A1); intensities as fold of C-CSNAP (A1), Experiment #1 right [1]: 0.3074 fold of C-CSNAP (A1); intensities as fold of C-CSNAP (A1), Experiment #2 left [1]: 0.3253 fold of C-CSNAP (A1); intensities as fold of C-CSNAP (A1), Experiment #2 right [1]: 0.4113 fold of C-CSNAP (A1); intensities as fold of C-CSNAP (A1), Experiment #3 left [1]: 0.4290 fold of C-CSNAP (A1); intensities as fold of C-CSNAP (A1), Experiment #3 right [1]: 1.0982 fold of C-CSNAP (A1); Average fold change, intensities as fold of C-CSNAP (A1) [2, 3]: 0.8483 fold
13 | DFFNDFEELFDDDDIQ [D 5, C-CSNAP, Asp to Glu substitution D49E] | 0.8086 fold of C-CSNAP (A1) | 0.9235 fold of C-CSNAP (A1) | –
14 | DFFNEFEELFDDEDIQ [Position E15, C-CSNAP, Asp to Glu substitution D46,49,54E] | 0.5680 fold of C-CSNAP (A1) | 0.8747 fold of C-CSNAP (A1) | –
15 | DFFNEFEELFDEDDIQ [Position E14, C-CSNAP, Asp to Glu substitution D46,49,53E] | 0.6197 fold of C-CSNAP (A1) | 0.9920 fold of C-CSNAP (A1) | –
16 | HADFFNDFEDLFDDDDIQ [A 3, CSNAP residues 40-57] | 1.0326 fold of C-CSNAP (A1) | – | Average fold change [2, 4]: 0.8215 fold
17 | EFFNDFEDLFDDEDIQ [Position D14, C-CSNAP, Asp to Glu substitution D42,54E] | 0.7060 fold of C-CSNAP (A1) | 1.0310 fold of C-CSNAP (A1) | –
18 | DFFNDFEELFEDDEIQ [Position E19, C-CSNAP, Asp to Glu substitution D49,52,55E] | 0.6448 fold of C-CSNAP (A1) | 1.0909 fold of C-CSNAP (A1) | –
19 | EFFNEFEELFEDEDIQ [D42,46,49,52,54E] | – | 0.9563 fold of C-CSNAP (A1) | Average fold change [1]: 0.5967 fold

Row | Substance | Average fold change, intensities as fold of C-CSNAP (A1) [1] | Average fold change [2, 3] | further results
20 | DWFNDWEDLWDDDDIQ [Position C23, C-CSNAP, Phe to Trp substitution F43,47,51W] | 0.4941 fold of C-CSNAP (A1) | 0.6854 fold of C-CSNAP (A1) | –
21 | EFFNEFEELFEEEEIQ [D42,46,49,52,53,54,56E] | – | 1.1160 fold of C-CSNAP (A1) | Average fold change [1]: 0.5923 fold
22 | EFFNDFEELFEDDEIQ [D42,49,52,55E] | – | 0.9030 fold of C-CSNAP (A1) | Average fold change [1]: 0.7529 fold
23 | EFFNDFEDLFEEEDIQ [D42,52,53,54E] | – | 1.1111 fold of C-CSNAP (A1) | Average fold change [1]: 0.7432 fold
24 | EFFNEFEELFDDDDIQ [E 4, C-CSNAP, Asp to Glu substitution D42,46,49E] | 0.8374 fold of C-CSNAP (A1) | 0.8106 fold of C-CSNAP (A1) | –
25 | DFFNDFEDLFDD[Aib]DIQ[Aib] [Position H18, C-CSNAP with Aib incorporation (54,58)] | 0.2987 fold of C-CSNAP (A1) | – | intensities as fold of C-CSNAP (A1), Experiment #1 left [1]: 0.3071 fold of C-CSNAP (A1); intensities as fold of C-CSNAP (A1), Experiment #1 right [1]: 0.2334 fold of C-CSNAP (A1); intensities as fold of C-CSNAP (A1), Experiment #2 left [1]: 0.1973 fold of C-CSNAP (A1); intensities as fold of C-CSNAP (A1), Experiment #2 right [1]: 0.2444 fold of C-CSNAP (A1); intensities as fold of C-CSNAP (A1), Experiment #3 left [1]: 0.2003 fold of C-CSNAP (A1); intensities as fold of C-CSNAP (A1), Experiment #3 right [1]: 0.6096 fold of C-CSNAP (A1); Average fold change, intensities as fold of C-CSNAP (A1) [2, 3]: 1.0167 fold
26 | EFFNEFEDLFEDDDIQ [E 5, C-CSNAP, Asp to Glu substitution D42,46,52E] | 0.8794 fold of C-CSNAP (A1) | 1.0465 fold of C-CSNAP (A1) | –
27 | DFFNDFEDLFEDDDIQ [D 6, C-CSNAP, Asp to Glu substitution D52E] | 0.9809 fold of C-CSNAP (A1) | 1.1581 fold of C-CSNAP (A1) | –
28 | DFFNEFEELFEDDDIQ [Position E13, C-CSNAP, Asp to Glu substitution D46,49,52E] | 0.6592 fold of C-CSNAP (A1) | 1.2426 fold of C-CSNAP (A1) | –
29 | EFFNEFEELFEDDDIQ [D42,46,49,52E] | – | 1.0318 fold of C-CSNAP (A1) | Average fold change [1]: 0.5168 fold
30 | DFFNDFEELFEEEEIQ [D49,52,53,54,55E] | – | 1.1796 fold of C-CSNAP (A1) | Average fold change [1]: 0.6658 fold
31 | DFFN-Aib-FEDLF-Aib-DDDI-Aib [Position H17, C-CSNAP with Aib incorporation (46,52,57)] | 0.3449 fold of C-CSNAP (A1) | – | intensities as fold of C-CSNAP (A1), Experiment #1 left [1]: 0.3158 fold of C-CSNAP (A1); intensities as fold of C-CSNAP (A1), Experiment #1 right [1]: 0.2689 fold of C-CSNAP (A1); intensities as fold of C-CSNAP (A1), Experiment #2 left [1]: 0.1472 fold of C-CSNAP (A1); intensities as fold of C-CSNAP (A1), Experiment #2 right [1]: 0.2740 fold of C-CSNAP (A1); intensities as fold of C-CSNAP (A1), Experiment #3 left [1]: 0.2292 fold of C-CSNAP (A1); intensities as fold of C-CSNAP (A1), Experiment #3 right [1]: 0.8343 fold of C-CSNAP (A1); Average fold change, intensities as fold of C-CSNAP (A1) [2, 3]: 0.7091 fold
32 | DWWNDWEDLWDDDDIQ [D 2, C-CSNAP, Phe to Trp substitution F43,44,47,51W] | 0.6800 fold of C-CSNAP (A1) | 0.9168 fold of C-CSNAP (A1) | –
33 | DFFNDFEDLWDDDDIQ [Position C15, C-CSNAP, Phe to Trp substitution F51W] | 0.8159 fold of C-CSNAP (A1) | 1.0302 fold of C-CSNAP (A1) | –
34 | KAVHADFFNDFEDLFDDDDIQ [A 6, CSNAP residues 37-57] | 1.1025 fold of C-CSNAP (A1) | – | Average fold change [2, 4]: 0.9179 fold
35 | DFFNEFEDLFDDDEIQ [Position D20, C-CSNAP, Asp to Glu substitution D46,55E] | 0.7799 fold of C-CSNAP (A1) | 1.3581 fold of C-CSNAP (A1) | –
36 | EFFNDFEELFDDEDIQ [Position E11, C-CSNAP, Asp to Glu substitution D42,49,54E] | 0.6850 fold of C-CSNAP (A1) | 0.8932 fold of C-CSNAP (A1) | –
37 | DFFNEFEELFDDDEIQ [Position E16, C-CSNAP, Asp to Glu substitution D46,49,55E] | 0.6983 fold of C-CSNAP (A1) | 0.9545 fold of C-CSNAP (A1) | –
38 | DFFNEFEELFDDDDIQ [Position D16, C-CSNAP, Asp to Glu substitution D46,49E] | 0.7250 fold of C-CSNAP (A1) | 1.2614 fold of C-CSNAP (A1) | –
